{"source": "patent US20090048346A1", "about": "“THERAPEUTIC FORMULATIONS” (Myriad Genetics, Incorporated, priority 2004, published 2009)", "conditions": "10 mg/mL in Cremophor:EtOH (1:1) diluted 1:9 with D5W, room temperature (approximately 25° C.), 38 days", "method": "10 ml of this solution was diluted 1:9 by the addition of 90 ml of D5W, and the resulting formulation was mixed by inversion until the solution appeared uniformly clear. The resulting mixture—an injectable formulation—was incubated at room temperature (approximately 25° C.) for 38 days.", "data": [{"smiles": "O=C(Nc1cc(C(F)(F)F)ccc1Oc1ccc(Cl)c2ccccc12)c1cc(Cl)ccc1O", "note": "[5-Chloro-N-[2-(4-chloro-naphtalen-1-yloxy)-5-trifluoromethyl-phenyl] -2-hydroxy-benzamide]", "values": [{"measurement": "Stability of compound concentration in the injectable formulation", "value": "stable over the entire period"}]}]}
